According to US11376308B2, “Use of FKBP-L polypeptides and nucleic acids for the treatment of obesity” (The Queen's University of Belfast, priority 2016, dated 2022):
“Also recorded” adds a separate entry of the source.

Assays:
[1] = High fat diet weight gain study in Fkbpl+/- and Fkbpl+/+ mice, ALM201 vs PBS; type: in vivo; settings: ALM201 0.3 mg/kg subcutaneously 5 days per week
Excerpt: (§1) For the high fat diet study, 40 age and sex matched mice were chosen with an age range of 6-10 weeks at the experimental start date. Mice were randomised into four groups: PBS Fkbpl^+/−, PBS Fkbpl^+/+, ALM201 Fkbpl^+/− and ALM201 Fkbpl^+/+. Power calculations were utilised to predict the number of mice needed to show statistical significance. Taking group 1 mean weight to be 25 g and group 2 mean weight to be 45 g, with a standard deviation of 13 gives a sample size of eight mice per group when powered to 0.8, with α=0.05. 10 mice per treatment group were used. All mice were weighed at experimental start date, biweekly for the first three weeks to ensure health, and weekly thereafter. Mice were solely fed a high fat diet comprising 60% fat (Cat no. F3282, Dates and, USA). Food provided was weighed biweekly for three weeks, then weekly, to ensure equal food provisions between boxes, with an allowance of 5 g per mouse per day assumed. ALM201 was reconstituted in PBS, stored at −20° C., and injected subcutaneously at a dose of 0.3 mg/kg, 5 days per week.

[2] = Oral Glucose Tolerance Test (OGTT) in high fat diet fed mice given ALM201; type: in vivo
Description: An OGTT was performed by fasting the mice for 4 h, taking baseline blood glucose, administering 40% D-glucose, and recording two further blood glucose readings at 30 and 60 min.
as §1

[3] = test system: SIRT1; assay: SIRT1 protein levels following ALM201 treatment (western blot); type: cell-based; settings: FIG. 6D
Description: For assessing protein levels: Cell lysates were prepared in RIPA buffer from MDA-MB-231, A3, MCF-7 and D2 cells and subjected to Western Blotting. The membrane was then probed with a 1:1000 dilution of rabbit FKBP-L IgG polyclonal primary antibody (Proteintech UK, cat: 10060-1-AP), 1:1000 rabbit SIRT1 IgG monoclonal primary antibody (Abcam, UK cat: ab32441) in 3% blocking solution overnight on a rocker at 4° C. The membrane was washed with PBS-Tween and then PBS for 5 min each, and was probed for an hour with a 1:5000 dilution of ECL anti rabbit IgG HRP linked whole secondary antibody (GE Healthcare UK Ltd.) Membranes were washed and developed as in section 2.2.2.11.3. Membranes were then stripped with Restore™ Western Blot Stripping Buffer (Thermo Scientific) for 10 min, washed, re-probed with rabbit GAPDH primary antibody (Sigma-Aldrich), and a 1:5000 dilution of ECL anti rabbit IgG HRP linked whole secondary antibody (GE Healthcare UK Ltd.) and developed as above. SIRT1 was identified as a band around 110 kDa, FKBP-L at 42 kDa.

[4] = test system: leptin; assay: Ray Biotech cytokine array on spent medium of MDA231 cells: leptin; type: cell-based; settings: spent medium of MDA231 cells after exposure to ALM201
Excerpt: (§2) FIGS. 7A and 7B illustrate the level of secretion of leptin, IL8 and TIMP Secretion after treatment with FKBP-L's therapeutic peptide, ALM201—A Ray Biotech cytokine array was used to measure cytokines in the spent medium of MDA231 cells after exposure to ALM201. Blots were then quantitated by densitometric analysis using Ray Biotech software.
(§3) A Ray Biotech cytokine array was used to measure cytokines in the spent medium of MDA231 cells after exposure to ALM201. Blots were then quantitated by densitometric analysis using Ray Biotech software. IL8 and TIMP1 levels were then validated by ELISA in two or three independent repeats. A reduction in these cytokines would reduce the obesity phenotype.

[5] = test system: TIMP1; assay: Ray Biotech cytokine array on spent medium of MDA231 cells, validated by ELISA: TIMP1; type: cell-based; settings: spent medium of MDA231 cells after exposure to ALM201
Excerpt: as §2, §3

[6] = test system: IL-8; assay: Ray Biotech cytokine array on spent medium of MDA231 cells, validated by ELISA: IL-8; type: cell-based; settings: spent medium of MDA231 cells after exposure to ALM201
Excerpt: as §2, §3

[7] = test system: NFkB; assay: LPS-induced NFkB phosphorylation in THP-1 monocytes (western blot); type: cell-based; settings: 100 ng/ml LPS, lysates 6 hour after treatment
Description: FIG. 12 illustrates the FKBP-L peptide, AD-01 (SEQ ID NO: 10), abrogates LPS-induced activation of NFkB in THP-1 monocytes—Cells were stimulated with 100 ng of LPS which results in activation of NFkB phosphorylation.
(§4) THP1 cells were treated with 100 ng/ml LPS and cell lysates harvested and subjected to western blotting as described in Example 4, using primary antibody against pSER36 NFkB (at a 1:1000 dilution) and a 1:5000 dilution of ECL anti rabbit IgG HRP linked whole secondary antibody (GE Healthcare UK Ltd.). To measure IL-1β levels THP1 cells were treated with 1000 ng/ml LPS±AD-01 and conditioned cell culture medium was collected 24 h later and assessed using an IL-1β ELISA.

[8] = test system: IL-1β; assay: LPS-induced IL-1β secretion in THP-1 monocytes (ELISA); type: cell-based; settings: 1000 ng/ml LPS, conditioned medium 24 h later
Description: FIG. 13 illustrates the FKBP-L peptide, AD-01, abrogates LPS-induced activation of IL-1β in THP-1 monocytes—Cells were stimulated with 1000 ng of LPS.
as §4

## NH2-IRQQPRDPPTETLELEVSPDPAS-OH (H-IRQQPRDPPTETLELEVSPDPAS-OH) [ALM201]
[1]; Fkbpl+/- mice, 0.3 mg/kg
  weight gain: significantly reduced; also recorded: normalises the mouse weight gain; also recorded: reduces and normalises weight gain
[1]; wild-type (Fkbpl+/+) mice
  weight gain: partially prevented weight gain
[2]; Fkbpl+/- mice given ALM201 vs Fkbpl+/- mice given PBS, readings at 30 and 60 min after 40% glucose
  blood glucose / glucose intolerance (OGTT): significantly reduced; also recorded: significantly lower blood glucose readings
[2]; both genotypes administered ALM201
  difference in blood glucose levels between Fkbpl+/- and Fkbpl+/+ mice (OGTT): no significant difference
[3]
  SIRT1 protein levels: increased SIRT1 levels
[4]
  secreted leptin levels: reduce
[5]
  secreted TIMP1 levels: reduce
[6]
  secreted IL-8 levels: reduce

## NH2-QIRQQPRDPPTETLELEVSPDPAS-OH (H-QIRQQPRDPPTETLELEVSPDPAS-OH) [AD-01]
[7]
  LPS-induced activation of NFkB (phosphorylation): inhibit; also recorded: abrogated that increase
[8]
  LPS-induced IL-1β secretion: dramatic reduction; also recorded: significantly abrogated
